Laboratory results reported in patent US10934263B2, “Charged ion channel blockers and methods for use” (Nocion Therapeutics, Inc., priority 2019, dated 2021).

Legend:
[1] = PAMPA membrane permeability assay; assay type: in vitro ADME; conditions: PAMPA permeability coefficient, GIT lipid, buffer pH 7.4, 4 hours incubation
Outline: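 Passive permeability across GIT lipid-coated artificial membrane; compounds at 50 μM in pH 7.4 buffer in donor wells, incubated 4 h. Donor, acceptor and reference concentrations read by UV spectroscopy, permeability coefficient calculated from spectral AUCs.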

NaV1.7 [2] = biological target: T1, NaV1.7 (Homo sapiens, UniProt Q15858); test: Whole cell patch clamp, external block of NaV1.7 current (compound in external solution); assay type: cell-based; conditions: compound applied externally, read-out: Nav1.7 Extracellular Inhibition; for inhibition at 30 µM: % inhibition at test concentration 30 μM
T1 construct: expressed in transfected cells; tetracycline-inducible, kept under hygromycin and blasticidin
Description: Representative compounds of the invention were synthesized according to the described methods and tested for the ability to inhibit voltage-gated sodium channels.
NaV1.7 was expressed upon induction with tetracycline. Cells were cultured in DMEM containing 10% dialyzed Fetal Bovine Serum (VWR, Radnor, Pa.), 1% Glutamax (VWR, Radnor, Pa.), 1% Penicillin-Streptomycin (VWR, Radnor, Pa.), 100 mg/L Hygromycin (Thermo Fisher Scientific, Waltham, Mass. and 5 mg/L Blasticidin (Alfa Aesar, Haverhill, Mass.). Cells were grown and maintained at 37° C. in a humidified environment containing 10% CO2 in air. Cells were detached from the culture flask for passage and harvested using 0.05% Trypsin-EDTA (Thermo Fisher Scientific, Waltham, Mass.). To induce NaV1.7, cells were induced with tetracycline (0.1-1 μg/mL, IBI Scientific, Peosta, Iowa) the day before recording and plated onto 24-well plates. Cells were washed with DPBS (VWR, Radnor, Pa.), trypsinized and then triturated five times in 10 mL of growth media to break apart cell aggregates. For one 24-well plate, 2 mL of cell suspension was mixed with 23 mL of fresh growth media and 0.1-1 μg/mL tetracycline added. 1 ml of mixed media with cells was then added to each well of a 24-well plate, with a 12 mm coverslip already placed in the bottom of the well. Cells were then incubated in 37° C. and 10% CO2 overnight.
The intracellular solution contained the following (in mM) CsCl 135, NaCl 10, EGTA 10, HEPES 10, MgCl2 2, adjusted to pH 7.2 with CsOH. The external solution was a normal Ringer solution containing (in mM) NaCl 155, HEPES 10, glucose 10, KCl 3.5, CaCl2 1.5, MgCl2 1 adjusted to pH 7.4 with NaOH. CsCl is from Alfa Aesar, Haverhill, Mass. All other chemicals are from Sigma-Aldrich, St. Louis, Mo. In order to test the degree of internal block by test compounds the compounds were dissolved in internal solution at the indicated test concentration. […] In order to test the degree of external block by test compounds the compounds were dissolved in external solution at the indicated test concentration.
18-24 hours after cells were induced with tetracycline, coverslips were placed into a chamber filled with Normal Ringer solution at room temperature and the chamber placed on a microscope. Pipettes were pulled from borosilicate glass on a P97 puller (Sutter Instrument, Novato, Calif.) and polished with a MF-830 Microforge (Narishige International USA, Inc, Amityville, N.Y.) to have a resistance of 1.5-2.5 MΩ when filled with CsCl internal solution at room temperature. Healthy cells (those that are round and translucent with no visible blemishes) were chosen for seal formation. A seal was formed between the pipette and the cell, and a brief pulse of suction was used to “break in” and establish the whole-cell configuration. The membrane potential was held at −100 mV before the voltage protocol began. Only cells with series resistance between 1.5-5 MΩ were retained for analysis. The voltage protocol was as follows: Cells were held at −100 mV for 12 ms followed by a hyperpolarizing step to −105 mV for 12 ms to monitor the leak. Cells were then stepped back to −100 mV for 40 ms. Cells were then depolarized to −20 mV for 10 ms and then returned to −100 mV for 26 ms.
Once the recording was started, the voltage protocol was run at 30 second intervals for 5 minutes to get a stable baseline. This is followed by 5 Hz stimulation of the same voltage protocol run until the end of experiment. […] The test compound is added for 5 minutes before washing out with normal Ringer's solution. Currents were recorded using PatchMaster software with Heka EPC10 (HEKA Electronics, Lambrecht, Germany). Only cells with inward current amplitudes at −20 mV between 400 pA and 4 nA were accepted. In addition, cells having leak currents greater than 10% of their current amplitudes were discarded. […]

NaV1.7 [3] = biological target: T1, NaV1.7; test: Whole cell patch clamp, internal block of NaV1.7 current (compound in internal solution); assay type: cell-based; conditions: compound applied internally, manual patch clamp, read-out: Nav1.7 Intracellular Inhibition
Outline: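 Tetracycline-induced NaV1.7 cells, whole-cell patch clamp at room temperature with compound in CsCl internal solution (pH 7.2), Ringer bath (pH 7.4). Held at −100 mV, steps to −20 mV; after baseline, four 30-s 5 Hz trains. Peak inward current at end of last train divided by baseline gives fraction remaining.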

T1 sequence (Q15858 whole entry): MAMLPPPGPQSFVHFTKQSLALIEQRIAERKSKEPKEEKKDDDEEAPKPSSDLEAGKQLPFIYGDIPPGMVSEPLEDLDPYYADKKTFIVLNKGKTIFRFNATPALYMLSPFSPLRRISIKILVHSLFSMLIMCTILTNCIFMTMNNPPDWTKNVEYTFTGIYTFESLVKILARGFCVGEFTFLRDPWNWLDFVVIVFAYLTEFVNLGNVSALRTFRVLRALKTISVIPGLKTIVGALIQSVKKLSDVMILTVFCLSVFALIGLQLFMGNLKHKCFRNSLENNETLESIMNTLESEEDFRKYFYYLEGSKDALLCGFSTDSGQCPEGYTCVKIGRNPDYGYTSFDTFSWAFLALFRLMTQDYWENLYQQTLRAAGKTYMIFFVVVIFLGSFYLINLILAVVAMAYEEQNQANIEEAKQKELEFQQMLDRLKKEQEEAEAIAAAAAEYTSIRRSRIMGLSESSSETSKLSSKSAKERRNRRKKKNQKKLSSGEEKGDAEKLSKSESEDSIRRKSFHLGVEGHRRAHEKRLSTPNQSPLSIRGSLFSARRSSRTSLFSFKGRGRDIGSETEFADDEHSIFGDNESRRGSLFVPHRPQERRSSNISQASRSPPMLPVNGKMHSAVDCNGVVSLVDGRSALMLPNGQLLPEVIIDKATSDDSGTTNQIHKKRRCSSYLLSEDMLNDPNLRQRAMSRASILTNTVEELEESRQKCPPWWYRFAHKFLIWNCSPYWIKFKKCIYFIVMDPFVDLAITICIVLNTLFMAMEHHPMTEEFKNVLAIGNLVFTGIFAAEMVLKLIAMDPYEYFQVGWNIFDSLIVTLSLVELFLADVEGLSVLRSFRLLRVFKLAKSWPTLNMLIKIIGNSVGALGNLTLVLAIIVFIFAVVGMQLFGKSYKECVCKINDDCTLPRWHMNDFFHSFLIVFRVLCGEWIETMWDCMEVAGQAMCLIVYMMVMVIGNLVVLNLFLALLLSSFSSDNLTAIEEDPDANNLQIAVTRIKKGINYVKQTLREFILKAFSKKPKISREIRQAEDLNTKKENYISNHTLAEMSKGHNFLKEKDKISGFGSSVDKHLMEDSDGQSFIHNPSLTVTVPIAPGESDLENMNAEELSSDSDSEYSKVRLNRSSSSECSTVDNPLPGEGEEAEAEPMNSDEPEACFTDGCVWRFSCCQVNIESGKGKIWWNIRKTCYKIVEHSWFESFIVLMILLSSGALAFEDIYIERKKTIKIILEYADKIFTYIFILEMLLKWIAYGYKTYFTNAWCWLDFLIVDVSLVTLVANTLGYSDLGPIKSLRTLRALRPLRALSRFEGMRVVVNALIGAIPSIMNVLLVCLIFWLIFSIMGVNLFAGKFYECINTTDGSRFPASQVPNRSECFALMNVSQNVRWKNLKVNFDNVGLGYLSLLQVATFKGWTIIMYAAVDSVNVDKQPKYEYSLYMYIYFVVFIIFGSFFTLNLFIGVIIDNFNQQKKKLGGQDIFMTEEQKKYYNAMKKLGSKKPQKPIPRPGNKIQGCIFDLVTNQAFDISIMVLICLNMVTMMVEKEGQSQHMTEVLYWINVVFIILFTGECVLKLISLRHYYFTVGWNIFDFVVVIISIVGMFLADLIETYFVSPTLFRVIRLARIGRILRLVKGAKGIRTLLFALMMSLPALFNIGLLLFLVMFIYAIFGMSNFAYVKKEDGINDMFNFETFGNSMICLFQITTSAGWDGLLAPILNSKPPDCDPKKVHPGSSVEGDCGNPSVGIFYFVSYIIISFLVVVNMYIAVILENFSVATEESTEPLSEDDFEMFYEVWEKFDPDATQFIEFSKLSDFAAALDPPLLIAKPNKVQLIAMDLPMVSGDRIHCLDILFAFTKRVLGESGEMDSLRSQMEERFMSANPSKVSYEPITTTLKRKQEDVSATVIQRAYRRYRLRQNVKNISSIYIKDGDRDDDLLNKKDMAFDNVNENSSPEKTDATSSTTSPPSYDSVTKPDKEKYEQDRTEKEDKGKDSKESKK

Structure (SMILES)	PAMPA (10^−6 cm/s) [1]	inhibition at 1000 µM (NaV1.7 [2]; % inhibition at test concentration 1,000 μM)	inhibition at 32 µM (NaV1.7 [3])	inhibition at 30 µM (NaV1.7 [2])	inhibition at 10 µM (NaV1.7 [3])	inhibition at 100 µM (NaV1.7 [2]; % inhibition at test concentration 100 μM)
Cc1cccc(C)c1NC(=O)C[n+]1c(C)cccc1C.[Br-] [Compound 6A, 1-(2-((2,6-dimethylphenyl)amino)-2-oxoethyl)-2,6-dimethylpyridin-1-ium bromide]	++ (0.1-2.0 10^−6 cm/s)	40 to 70%	> 95%	–	–	–
Cc1cccc(C)c1NC(=O)C[n+]1cccc(-c2ccccc2)c1.[Br-] [Compound 12A, 1-(2-((2,6-dimethylphenyl)amino)-2-oxoethyl)-3-phenylpyridin-1-ium bromide]	+ (<0.1 10^−6 cm/s)	–	> 95%	< 40%	> 95%	–
CCc1cccc[n+]1CC(=O)Nc1c(C)cccc1C.[Br-] [Compound 13A]	+ (<0.1 10^−6 cm/s)	–	70 to 95%	< 40%	–	–
Cc1cccc(C)c1NC(=O)C[n+]1ccccc1-c1ccccc1.[Br-] [Compound 16A]	++ (0.1-2.0 10^−6 cm/s)	–	> 95%	–	> 95%	< 40%
CCc1ccc[n+](CC(=O)Nc2c(C)cccc2C)c1.[Br-] [Compound 17A]	+ (<0.1 10^−6 cm/s)	–	70 to 95%	< 40%	70 to 95%	–
CCOC(=O)c1ccc[n+](CC(=O)Nc2c(C)cccc2C)c1.[Br-] [Compound 25A]	+ (<0.1 10^−6 cm/s)	–	–	40 to 70%	70 to 95%	–
